Data as given in PMC4547362 (Molecular cancer therapeutics, 2015).
Where two headings read alike, the source gives them in different places.

Key:
Stat5a/b = Stat5a/b activation and transcriptional activity, side-by-side with IST5-002; format: cell-based
Stat3 = Stat3 (Homo sapiens, UniProt P40763); assay: IL-6-induced Stat3 nuclear translocation in DU145 cells, immunofluorescence; format: cell-based; conditions: IL-6 5 nM, IST5-002 even at 50 μM
Stat1 = conditions: cited from earlier work
Stat5 = conditions: cited from earlier work
[1] = side-by-side with IST5-002, data not shown

Stat3, sequence (P40763 whole entry): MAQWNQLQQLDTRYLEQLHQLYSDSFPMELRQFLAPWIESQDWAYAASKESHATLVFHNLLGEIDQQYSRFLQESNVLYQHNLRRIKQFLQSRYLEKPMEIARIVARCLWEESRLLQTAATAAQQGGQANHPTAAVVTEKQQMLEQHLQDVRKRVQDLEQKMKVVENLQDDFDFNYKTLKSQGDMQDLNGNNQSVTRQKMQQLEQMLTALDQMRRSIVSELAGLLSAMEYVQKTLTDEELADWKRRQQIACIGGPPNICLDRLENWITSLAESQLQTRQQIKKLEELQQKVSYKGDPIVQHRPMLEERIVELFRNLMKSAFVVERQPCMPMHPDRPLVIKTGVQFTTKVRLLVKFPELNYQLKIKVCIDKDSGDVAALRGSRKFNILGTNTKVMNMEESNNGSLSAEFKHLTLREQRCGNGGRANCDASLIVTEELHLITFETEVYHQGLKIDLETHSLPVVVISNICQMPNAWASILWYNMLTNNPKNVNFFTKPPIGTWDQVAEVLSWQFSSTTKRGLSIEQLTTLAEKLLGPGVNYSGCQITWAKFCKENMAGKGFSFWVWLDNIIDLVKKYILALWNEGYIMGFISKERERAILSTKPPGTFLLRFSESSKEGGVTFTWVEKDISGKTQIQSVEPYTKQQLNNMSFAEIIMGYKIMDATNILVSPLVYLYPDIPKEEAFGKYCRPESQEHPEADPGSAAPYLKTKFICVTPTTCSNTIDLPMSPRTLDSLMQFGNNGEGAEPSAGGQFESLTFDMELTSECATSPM

Q: Which “effect on Stat5a/b activation and transcriptional activity” value (“effect” for short) (Stat5a/b; [1]) does the source give for Nc1ncnc2c1ncn2[C@@H]1O[C@H](COP(=O)(O)O)[C@@H](O)[C@H]1O [AMP] here?
A: no effect

Q: For Cc1cc(Nc2nc(N[C@@H](C)c3ncc(F)cn3)ncc2Cl)n[nH]1 [AZD1480, reference compound], which Stat3 nuclear translocation (Stat3) is on record?
A: effectively suppressed

Q: With Nc1nc(F)nc2c1ncn2[C@@H]1O[C@H](CO)[C@@H](O)[C@@H]1O [Fludarabine, fludarabine] as the molecule, how does the “Stat1 phosphorylation and activation” value (Stat1) read?
A: inhibit

Q: And the Stat5 activity (Stat5)?
A: not affecting

Q: For Nc1nc2c(ncn2[C@@H]2O[C@H](COP(=O)(O)O)[C@@H](O)[C@H]2O)c(=O)[nH]1 [GMP], which “effect” value (Stat5a/b; [1]) is on record?
A: no effect

Q: Which “effect” value (Stat5a/b) does the source give for Nc1ncnc2c1ncn2[C@@H]1O[C@@H]2COP(=O)(O)O[C@H]2[C@H]1O [cyclic AMP] here?
A: no effect
